The IC50 is the midpoint of a concentration-inhibition curve. A higher IC50 goes with a need for much substance.

This is an account of results in patent US8173609B2, “Macrolides useful against inflammatory and allergic diseases” (Basilea Pharmaceutica AG, priority 2006, dated 2012).

The subject of the assay is human PDE4. In words: PDE4 inhibition, in vitro enzymatic IMAP FP assay. The format is biochemical. The settings on record: for IC50: PDE4 partially purified from human monocytic U-937 cells, fluorescence polarization. On the procedure: PDE4 specifically hydrolyzes cAMP and releases the product AMP. The potency of PDE inhibition by said agents was determined in an in vitro enzymatic assay. The assay is commercially available (IMAP™ FP assay Molecular Devices Corp.) and was optimized for the use of human PDE4. Fluorescently labeled cAMP was hydrolyzed by PDE4 and in a second step, binding of labeled product to a large binding partner allowed product detection by fluorescence polarization (FP) measurements.
PDE4 was partially purified from undifferentiated human monocytic cells (U-937) according to Thorpy et al. 1992 (J. Pharmacol. Exp. Ther. 263: 1195). […] In addition, PDE4 preparations were validated by inhibition studies with PDE4-specific and unspecific PDE inhibitors.
Stock solutions of test compounds were made in DMSO and diluted in assay buffer (10 mM Tris-HCl, 10 mM MgCl2, 0.1% BSA 0.05% NaN3, pH 7.2) to the desired concentrations. The solutions used in the assay contained test compound in assay buffer with 2% DMSO.
10 μl of substrate (at a concentration recommended by the manufacturer) were mixed with 5 μl of appropriately diluted PDE and 5 μl of test compound solution. 5 μl of reaction buffer with 2% DMSO were used for control reactions. […] After incubation for 90 minutes at room temperature, 60 μl of binding reagent were added as specified by the manufacturer. Binding was allowed to proceed for 30 minutes and fluorescence polarization was measured. Dose dependence of PDE inhibition was measured by assaying dilution series of test compounds in duplicates. IC50 values were determined from the measured activities by curve fitting.
(In general: Fluorescence polarisation rises when a labelled molecule tumbles more slowly, as on binding a larger partner.)

The molecule “compound of formula I where R1 is [2-[(5-(3,5-dichloro-pyridin-4-yl-amino-carbonyl)-1-ethyl-1H-pyrazolo[3,4-b]pyridin-4-ylamino]-ethyl]thio, R2 and R3 taken together form a C═O Group and R4 is Methyl [Example 6]” yielded an IC50 of 0.37 µM.

As to `CC[C@H]1OC(=O)[C@H](C)[C@@H](O[C@H]2C[C@@](C)(OC)[C@@H](O)[C@H](C)O2)[C@H](C)[C@@H](O[C@@H]2O[C@H](C)C[C@H](N(C)C)[C@H]2O)[C@](C)(OC)C[C@@H](C)C(=O)[C@H](C)[C@H]2[C@H](SCCn3cnc4c(N)ncc(C(=O)Nc5c(Cl)cncc5Cl)c43)C(=O)O[C@@]21C` [Example 11, compound of formula I where R1 is [2-[4-amino-7-(3,5-dichloro-pyridin-4-yl-amino-carbonyl)-imidazo[4,5-c]pyridin-1-yl]-ethyl]thio, R2 and R3 taken together form a C═O Group and R4 is Methyl], inhibition was half-maximal at 0.008 µM (IC50). The “IC50(PDE4) relative to the IC50(PDE4) for the macrolide substituent in free form” value (ratio of Example 11 IC50 to IC50 of free substituent drawing 48) was “about one five hundredth”.

“compound of formula I where R1 is [3-[4-Amino-7-(pyridin-4-yl-amino-carbonyl)-imidazo[4,5-c]pyridin-1-yl]-propyl]thio, R2 and R3 taken together form a C═O Group and R4 is Methyl [Example 8]” came in with an IC50 of 4.7 µM.

In turn, `CC[C@H]1OC(=O)[C@H](C)[C@@H](O[C@H]2C[C@@](C)(OC)[C@@H](O)[C@H](C)O2)[C@H](C)[C@@H](O[C@@H]2O[C@H](C)C[C@H](N(C)C)[C@H]2O)[C@](C)(OC)C[C@@H](C)C(=O)[C@H](C)[C@H]2[C@H](SCCn3cnc4c(N)nc(NCc5ccncc5)nc43)C(=O)O[C@@]21C` [Example 13, Compound of Formula I where R1 is [2-[6-amino-2-[[(4-pyridyl)methyl]amino]-purin-9-yl]ethyl]thio, R2 and R3 taken together form a C═O Group and R4 is Methyl] gave an IC50 of 2.6 µM.

`CCC1OC(=O)C(C)C(OC2CC(C)(OC)C(O)C(C)O2)C(C)C(OC2OC(C)CC(N(C)C)C2O)C(C)(OC)CC(C)C(=O)C(C)C2C(SCCN(C(=O)c3ccncc3)c3ccc(OC)c(OC4CCCC4)c3)C(=O)OC12C` (stereo not shown) [Example 3, Compound of Formula I where R1 is [2-[(3cyclopentyloxy-4-methoxy-phenyl)-(pyridin-4-yl-carbonyl)-amino]ethyl]thio, R2 and R3 taken together form a C═O Group and R4 is Methyl] showed an IC50 of 3.4 µM.

Molecule `CC[C@H]1OC(=O)[C@H](C)[C@@H](O[C@H]2C[C@@](C)(OC)[C@@H](O)[C@H](C)O2)[C@H](C)[C@@H](O[C@@H]2O[C@H](C)C[C@H](N(C)C)[C@H]2O)[C@](C)(OC)C[C@@H](C)C(=O)[C@H](C)[C@H]2[C@H](SCCn3cnc4c(N)ncc(C(=O)Nc5ccncc5)c43)C(=O)O[C@@]21C` [Example 10, Compound of Formula I where R1 is [2-[4-amino-7-(pyridin-4-yl-amino-carbonyl)-imidazo[4,5-c]pyridin-1-yl]-ethyl]thio, R2 and R3 taken together form a C═O Group and R4 is Methyl] yielded an IC50 of 1 µM.

`CC[C@H]1OC(=O)[C@H](C)[C@@H](O[C@H]2C[C@@](C)(OC)[C@@H](O)[C@H](C)O2)[C@H](C)[C@@H](O[C@@H]2O[C@H](C)C[C@H](N(C)C)[C@H]2O)[C@](C)(OC)C[C@@H](C)C(=O)[C@H](C)[C@H]2[C@H](SCCn3cnc4c(N)nc(NCc5cccnc5)nc43)C(=O)O[C@@]21C` [Example 12, Compound of Formula I where R1 is [2-[6-amino-2-[[(3-pyridyl)methyl]amino]-purin-9-yl]ethyl]thio, R2 and R3 taken together form a C═O Group and R4 is Methyl]: the IC50 came to 3.8 µM.

Regarding `CC[C@H]1OC(=O)[C@H](C)[C@@H](O[C@H]2C[C@@](C)(OC)[C@@H](O)[C@H](C)O2)[C@H](C)[C@@H](O[C@@H]2O[C@H](C)C[C@H](N(C)C)[C@H]2O)[C@](C)(OC)C[C@@H](C)C(=O)[C@H](C)[C@H]2[C@H](SC)C(=O)O[C@@]21C` [reference compound], under “up to a concentration of 50 μM in the assay used in the examples”, the PDE4-inhibiting activity entry is on record as “does not show any PDE4-inhibiting activity”.

Regarding `CSCCn1cnc2c(N)ncc(C(=O)Nc3c(Cl)cncc3Cl)c21` [reference compound], it took 3.6 µM to reach half-maximal inhibition (IC50).

`CCC1OC(=O)C(C)C(OC2CC(C)(OC)C(O)C(C)O2)C(C)C(OC2OC(C)CC(N(C)C)C2O)C(C)(OC)CC(C)C(=O)C(C)C2C(SCCn3c(Nc4cccnc4)nc4c(N)ncnc43)C(=O)OC12C` (stereo not shown) [Example 2, compound of formula I where R1 is [2-[6-Amino-8-(pyridin-3-ylamino)-purin-9-yl]ethyl]thio, R2 and R3 taken together form a C═O Group and R4 is Methyl] had an IC50 of 3.9 µM.

For `CCC1OC(=O)C(C)C(OC2CC(C)(OC)C(O)C(C)O2)C(C)C(OC2OC(C)CC(N(C)C)C2O)C(C)(OC)CC(C)C(=O)C(C)C2C(SCCN(Cc3cccnc3)c3ccc(OC)c(OC4CCCC4)c3)C(=O)OC12C` (stereo not shown) [Example 5, Compound of Formula I where R1 is [2-[(3-cyclopentyloxy-4-methoxy-phenyl)-(pyridin-3-ylmethyl)-amino]-ethyl]thio, R2 and R3 taken together form a C═O Group and R4 is Methyl], 0.85 µM corresponded to half-maximal inhibition (IC50).

Molecule `CCC1OC(=O)C(C)C(OC2CC(C)(OC)C(O)C(C)O2)C(C)C(OC2OC(C)CC(N(C)C)C2O)C(C)(OC)CC(C)C(=O)C(C)C2C(SCCCc3c(C(=O)Nc4ccncc4)ccc(OC)c3OC)C(=O)OC12C` (stereo not shown) [Example 7, Compound of Formula I where R1 is [3-[2,3-dimethoxy-6-(pyridin-4-yl-amino-carbonyl)phenyl]-propyl]thio, R2 and R3 taken together form a C═O Group and R4 is Methyl] yielded an IC50 of 7.6 µM.

In turn, `CCC1OC(=O)C(C)C(OC2CC(C)(OC)C(O)C(C)O2)C(C)C(OC2OC(C)CC(N(C)C)C2O)C(C)(OC)CC(C)C(=O)C(C)C2C(SCCCn3cnc4c(N)ncc(C(=O)NCC(=O)OC)c43)C(=O)OC12C` (stereo not shown) [Example 9, compound of formula I where R1 is [3-[4-amino-7-([methoxycarbonylmethyl]-amino-carbonyl)-imidazo[4,5-c]pyridin-1-yl]-propyl]thio, R2 and R3 taken together form a C═O Group and R4 is Methyl] came in with an IC50 of 24.2 µM.

For `CCC1OC(=O)C(C)C(OC2CC(C)(OC)C(O)C(C)O2)C(C)C(OC2OC(C)CC(N(C)C)C2O)C(C)(OC)CC(C)C(=O)C(C)C2C(SCCn3c(CCc4cccnc4)nc4c(N)ncnc43)C(=O)OC12C` (stereo not shown) [Example 1, compound of formula I where R1 is [2-[6-Amino-8-(2-pyridin-3-yl-ethyl)-purin-9-yl]ethyl]thio, R2 and R3 taken together form a C═O group and R4 is methyl], the IC50 is 13.4 µM.

`CCC1OC(=O)C(C)C(OC2CC(C)(OC)C(O)C(C)O2)C(C)C(OC2OC(C)CC(N(C)C)C2O)C(C)(OC)CC(C)C(=O)C(C)C2C(SCCN(Cc3ccncc3)c3ccc(OC)c(OC4CCCC4)c3)C(=O)OC12C` (stereo not shown) [Example 4, compound of formula I where R1 is [2-[(3-cyclopentyloxy-4-methoxy-phenyl)-(pyridin-4-ylmethyl)-amino]-ethyl]thio, R2 and R3 taken together form a C═O Group and R4 is Methyl] returned an IC50 of 0.28 µM.
